This note sets out measurements from patent publication US20110044892A1, “FORMULATION AND METHOD FOR TREATMENT OF TEETH” (priority 2007, published 2011).

A short description of series [1]: Dentinal tubule plugging by lanthanide salt solutions on etched dentine discs (SEM, backscattered SEM, EDX). The conditions noted are these: for presence of the lanthanide by EDX: energy dispersive X-ray microanalysis of treated dentine; for blockage or plugging of the tubules (SEM appearance) / deposits on / coverage of the dentinal surface: solution in water; for blockage or plugging of the tubules (SEM appearance) / deposits on / coverage of the dentinal surface / depth of penetration within the tubules: 5 to 10 minutes on disc; for depth of penetration within the tubules: 4% to 5% by weight solution in water; for depth of penetration within the tubules / penetration of / deposits within the tubules (qualitative): SEM; for penetration of / deposits within the tubules (qualitative): in water. Set-up: species or system human. The text has this: We also assessed other lanthanide compounds, as hereinafter discussed.
For each of the lanthanide salts, caries-free surgically-extracted human molar teeth were cleaned of organic material and, after removal of the crown, sectioned mesio-distally to provide one to two 1-mm dentine discs which were used in the experiment immediately. […] A solution containing a respective one of the above-mentioned lanthanide salts in a concentration of 4% to 5% by weight in the solvent was placed on or in contact with the discs respectively for 5 to 10 minutes before rinsing under flowing tap water. These treated discs were dried completely and then split using pliers, this helping to expose the tubular area for observation of depth of penetration. Specimens were then carbon-coated before examination under SEM (scanning electron microscope). The same procedure was used for each of the other lanthanide compounds hereinafter discussed.
When observed in a backscattered electron beam, dense materials appear as high contrast (bright areas) material relative to the background material (tooth structure). Lanthanides in general have greater density compared to the hydroxyapatite present in the tooth. Thus, in a backscattered electron beam, the lanthanides appear as bright areas due to their high density compared to the background.

Series [2] in a line: pH of solution or formulation. The format is physicochemical. To be noted: solution as applied to dentin. From the text:
If the solution applied to the dentin is too acidic, for example, lower than 5.5, it will demineralize and thereby undesirably weaken the dentin. If the solution applied to the dentin is too basic, for example, in excess of 7.5, it will undesirably form a lot of calculus. An ideal pH for the dentin treatment solution is considered to be about 6 to 7, preferably about 6.6 to 7. Such a pH is believed to be important not only to prevent de-mineralization but also to aid in re-mineralization of dentin surfaces. Therefore, in accordance with the present invention, the dentin treatment solution is formulated to have a pH of about 6 to 7, preferably about 6.6 to 7. […] The formulation with the addition of the insoluble oxide forms on the surface of the dentin or other tooth surface a protective coat that keeps the pH constant to maintain the tooth integrity and protect its surface from, for example, routinely used acidic beverages, protection of dental restorations, and microleakage protection (protection from bacterial leakage and leakage associated with restorative materials) as well as for re-mineralization. The insoluble oxide may include other insoluble substances providing a pH of about 6 to 7 in the dentin treatment solution and on the dentin surfaces, for example, amphoteric oxides such as aluminum oxide and zinc oxide. […]

On series [3], the source says: For the purposes of this specification and the claims, the term “soluble” refers to a characteristic of a salt of dissolving in water (or other solvent in which the salt is placed) to the extent that there is substantially no precipitation or settling out of material.

`O.O.O.O.O.O.O.[Ce+3].[Cl-].[Cl-].[Cl-]` [cerium chloride, cerium chloride heptahydrate]: in series [1], the “presence of the lanthanide by EDX” value was “confirmed”, the “blockage or plugging of the tubules (SEM appearance)” value is “substantially complete blockage or plugging of the tubules” and the “deposits on / coverage of the dentinal surface” value (“deposits on / coverage” below) is “cover substantially the dentinal surface”.

On to `O.O.O.O.O.O.[Cl-].[Cl-].[Cl-].[Gd+3]` [gadolinium chloride, gadolinium chloride hexahydrate], for which, in series [1], the “presence of the lanthanide by EDX” value is reported as “confirmed”, the “blockage or plugging of the tubules (SEM appearance)” value was “substantially complete blockage or plugging of the tubules” and the “deposits on / coverage” value is listed as “cover substantially the dentinal surface”.

Turning to `O.O.O.O.O.O.O=[N+]([O-])[O-].O=[N+]([O-])[O-].O=[N+]([O-])[O-].[Gd+3]` [gadolinium nitrate, gadolinium nitrate hexahydrate], the pH of solution entry in series [2] is “about 4.3”. For the same compound, in series [1], the “depth of penetration within the tubules” value is on record as “up to 5 microns”, the “presence of the lanthanide by EDX” value is “confirmed”, the “blockage or plugging of the tubules (SEM appearance)” value was “substantially complete blockage or plugging of the tubules” and the “deposits on / coverage” value was “substantially covering the dentinal surface”.

For the compound `O=C([O-])[O-].O=C([O-])[O-].O=C([O-])[O-].[La+3].[La+3]` [lanthanum carbonate], in series [1], the “penetration of / deposits within the tubules (qualitative)” value is reported as “poor penetration of the tubules”, the “blockage or plugging of the tubules (SEM appearance)” value is reported as “no plugging observed” and the “deposits on / coverage” value is given as “no dentin surface deposits were observed”.

As to `O.O.O.O.O.O.O.[Cl-].[Cl-].[Cl-].[La+3]` [lanthanum chloride, lanthanum chloride heptahydrate], in series [1], the “depth of penetration within the tubules” value is “up to 12 microns”, the “presence of the lanthanide by EDX” value is reported as “confirmed”, the “blockage or plugging of the tubules (SEM appearance)” value is given as “substantially complete blockage or plugging of the tubules” and the “deposits on / coverage” value was “cover some of the surface”.

With `[La+3].[OH-].[OH-].[OH-]` [lanthanum hydroxide], in series [1], the “penetration of / deposits within the tubules (qualitative)” value is listed as “poor penetration of the tubules”, the “blockage or plugging of the tubules (SEM appearance)” value was “no plugging observed” and the “deposits on / coverage” value was “no dentin surface deposits were observed”. Besides, in series [3], the solubility in water result is reported as “not being soluble in water”.

As to `O=[N+]([O-])[O-].[K+]` [potassium nitrate, reference compound], in series [1], the “penetration of / deposits within the tubules (qualitative)” value was “little or no deposits within the tubules” and the “deposits on / coverage” value was “considerable deposits on the surface”.

Take `O=C([O-])C(=O)[O-].[K+].[K+]` [potassium oxalate, reference compound]: in series [2], the pH of solution entry was “about 2”. In addition, in series [1], the “depth of penetration within the tubules” value fell in the range of 3 to 4 microns, the “blockage or plugging of the tubules (SEM appearance)” value is given as “formed crystals that appear to block the tubules” and the “deposits on / coverage” value is reported as “a substantial amount of potassium oxalate was deposited on the dentin surface”.

Take `O.O.O.O.O.O.[Cl][Sm]([Cl])[Cl]` [samarium chloride, samarium chloride hexahydrate]: in series [1], the “presence of the lanthanide by EDX” value is “confirmed”, the “blockage or plugging of the tubules (SEM appearance)” value is “substantially complete blockage or plugging of the tubules” and the “deposits on / coverage” value is given as “cover substantially the dentinal surface”.
